# Data reported in ChEMBL document CHEMBL3877294, “Discovery of Ruzasvir (MK-8408): A Potent, Pan-Genotype HCV NS5A Inhibitor with Optimized Activity against Common Resistance-Associated Polymorphisms” (J Med Chem, 2017).
# Where a chain is given by its changes, count along the chain named.
# Key:
# Huh-7 [1] = assay: Inhibition of HCV genotype-1a NS5A infected in human HuH7 cells by luciferase reporter gene assay; assay type: cell-based; details: Hepatitis C virus subtype 1a
# Huh-7 [2] = assay: Inhibition of HCV genotype-2b NS5A harboring methionine at position 31 infected in human HuH7 cells by luciferase reporter gene assay; assay type: cell-based; details: Hepatitis C virus subtype 2b
# Huh-7 [3] = assay: Inhibition of HCV genotype-3a NS5A infected in human HuH7 cells by luciferase reporter gene assay; assay type: cell-based; details: Hepatitis C virus subtype 3a
# Huh-7 [4] = assay: Inhibition of HCV genotype-4a NS5A infected in human HuH7 cells by luciferase reporter gene assay; assay type: cell-based; details: Hepatitis C virus subtype 4a
# Huh-7 [5] = assay: Inhibition of HCV genotype-1b NS5A infected in human HuH7 cells by luciferase reporter gene assay; assay type: cell-based; details: Hepatitis C virus subtype 1b
# [6] = system: T1, Nonstructural protein 5A (Hepatitis C virus), Q5L478 [Y93H]; assay: Inhibition of HCV genotype-1b NS5A Y93H mutant infected in human HuH7 cells by luciferase reporter gene assay; assay type: cell-based; details: Hepatitis C virus subtype 1b; Huh-7
# T1 sequence (whole entry): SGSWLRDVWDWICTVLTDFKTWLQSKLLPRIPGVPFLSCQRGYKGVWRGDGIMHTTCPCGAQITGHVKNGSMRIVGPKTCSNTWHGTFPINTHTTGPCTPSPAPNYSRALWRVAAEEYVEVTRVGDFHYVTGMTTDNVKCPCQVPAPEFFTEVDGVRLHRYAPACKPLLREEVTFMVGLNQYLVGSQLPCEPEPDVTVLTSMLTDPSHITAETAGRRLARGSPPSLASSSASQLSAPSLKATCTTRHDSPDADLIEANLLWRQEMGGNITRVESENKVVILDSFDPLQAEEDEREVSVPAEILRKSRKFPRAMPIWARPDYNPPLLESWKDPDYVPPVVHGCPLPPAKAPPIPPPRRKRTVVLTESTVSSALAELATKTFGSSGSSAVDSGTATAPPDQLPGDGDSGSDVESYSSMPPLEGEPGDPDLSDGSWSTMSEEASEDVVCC
# [7] = system: Nonstructural protein 5A (Hepatitis C virus), Q5L478 [UNDEFINED MUTATION]; assay: Inhibition of HCV genotype-1a NS5A Q30R mutant infected in human HuH7 cells by luciferase reporter gene assay; assay type: cell-based; details: Hepatitis C virus subtype 1a; Huh-7
# [8] = system: T2, Nonstructural protein 5A (Hepatitis C virus), Q5L478 [Y93C]; assay: Inhibition of HCV genotype-1a NS5A Y93C mutant infected in human HuH7 cells by luciferase reporter gene assay; assay type: cell-based; details: Hepatitis C virus subtype 1a; Huh-7
# T2 sequence (whole entry): T1 sequence (whole entry) with H93C
# Huh-7 [9] = assay: Inhibition of HCV genotype-2a NS5A infected in human HuH7 cells by luciferase reporter gene assay; assay type: cell-based; details: Hepatitis C virus subtype 2a
# Huh-7 [10] = assay: Inhibition of HCV genotype-5a NS5A infected in human HuH7 cells by luciferase reporter gene assay; assay type: cell-based; details: Hepatitis C virus subtype 5a
# Huh-7 [11] = assay: Inhibition of HCV genotype-6 NS5A infected in human HuH7 cells by luciferase reporter gene assay; assay type: cell-based; details: Hepatitis C virus genotype 6
# Huh-7 [12] = assay: Inhibition of HCV genotype-6d NS5A infected in human HuH7 cells by luciferase reporter gene assay; assay type: cell-based; details: Hepatitis C virus subtype 6d
# [13] = system: T1, Nonstructural protein 5A (Hepatitis C virus), Q5L478 [Y93H]; assay: Inhibition of HCV genotype-1a NS5A Y93H mutant infected in human HuH7 cells by luciferase reporter gene assay; assay type: cell-based; details: Hepatitis C virus subtype 1a; Huh-7
# [14] = system: Nonstructural protein 5A (Hepatitis C virus), Q5L478 [UNDEFINED MUTATION]; assay: Inhibition of HCV genotype-1a NS5A L31V mutant infected in human HuH7 cells by luciferase reporter gene assay; assay type: cell-based; details: Hepatitis C virus subtype 1a; Huh-7
# [15] = Plasma clearance in rat at 2 mg/kg, iv measured after 24 hrs by LC/MS method; assay type: ADME, organism-based
# [16] = Half life in rat at 2 mg/kg, iv by LC/MS method; assay type: ADME, organism-based; details: in vivo
# [17] = AUC in rat at 10 mg/kg, po measured after 24 hrs by LC/MS method; assay type: ADME, organism-based; set-up: time < 24 hr, dose 10 mg/kg, route oral; details: in vivo
# [18] = Drug uptake in rat at 10 mg/kg, po measured at 24 hrs post dose by LC/MS method; assay type: ADME, organism-based; details: in vivo, read-out: Drug uptake
# [19] = Oral bioavailability in rat at 10 mg/kg measured after 24 hrs by LC/MS method; assay type: ADME, organism-based; details: in vivo
# [20] = Plasma clearance in dog at 1 mg/kg, iv measured after 24 hrs by LC/MS method; assay type: ADME, organism-based, Canis lupus familiaris
# [21] = Half life in dog at 1 mg/kg, iv by LC/MS method; assay type: ADME, organism-based, Canis lupus familiaris; details: in vivo
# [22] = AUC (0 to t) in dog at 5 mg/kg, po measured after 24 hrs by LC/MS method; assay type: ADME, organism-based, Canis lupus familiaris; set-up: time < 24 hr, dose 5 mg/kg, route oral; details: in vivo
# [23] = Drug uptake in dog at 5 mg/kg, po measured at 24 hrs post dose by LC/MS method; assay type: ADME, organism-based, Canis lupus familiaris; details: in vivo, read-out: Drug uptake
# [24] = Oral bioavailability in dog at 5 mg/kg measured after 24 hrs by LC/MS method; assay type: ADME, organism-based, Canis lupus familiaris; details: in vivo
# [25] = system: Hepatitis C virus subtype 1a; assay: Selectivity ratio for EC90 for HCV genotype-1a NS5A Y93H mutant to EC90 for HCV genotype-1a NS5A
# [26] = Selectivity ratio for EC90 for HCV genotype-2b NS5A harboring methionine at position 31 to EC90 for HCV genotype-1a NS5A
# [27] = system: Hepatitis C virus subtype 1a; assay: Selectivity ratio for EC90 for HCV genotype-1a NS5A L31V mutant to EC90 for HCV genotype-1a NS5A
# [28] = Selectivity ratio for EC90 for HCV genotype-3a NS5A to EC90 for HCV genotype-1a NS5A
# [29] = Selectivity ratio for EC90 for HCV genotype-4a NS5A to EC90 for HCV genotype-1a NS5A
# [30] = AUC (0 to t) in rat at 10 mg/kg, po measured after 24 hrs by LC/MS method; assay type: ADME, organism-based; set-up: dose 10 mg/kg, time < 24 hr, route oral; details: in vivo
Compound,EC90 (Huh-7 [1]),EC90 (Huh-7 [2]),EC90 (Huh-7 [3]),EC90 (Huh-7 [4]),EC90 [13],EC90 [14],clearance [15],half-life [16],AUC at 24 h [17],concentration at 24 h [18],bioavailability [19],clearance [20],half-life [21],AUC(0-t) at 24 h [22],concentration at 24 h [23],bioavailability [24],Selectivity ratio [25],Selectivity ratio [26],Selectivity ratio [28],Selectivity ratio [29],also measured
COC(=O)N[C@H](C(=O)N1CCC[C@H]1c1nc(-c2ccc3c(c2)O[C@@H](c2ccccc2)n2c-3cc3cc(-c4c[nH]c([C@@H]5CCCN5C(=O)[C@@H](NC(=O)OC)C(C)C)n4)ccc32)c[nH]1)C(C)C,0.006 nM,11 nM,0.12 nM,0.016 nM,,,,,,,,,,,,,,,,,EC90 (Huh-7 [5]): 0.006 nM; EC90 [6]: 0.89 nM; EC90 [7]: 2.5 nM; EC90 [8]: 1.1 nM; EC90 (Huh-7 [9]): 0.019 nM; EC90 (Huh-7 [10]): 0.002 nM; EC90 (Huh-7 [11]): 0.017 nM; EC90 (Huh-7 [12]): 0.008 nM
CCc1ccc([C@@H]2Oc3cc(-c4cnc([C@@H]5CCCN5C(=O)[C@@H](NC(=O)OC)C(C)C)[nH]4)cc(F)c3-c3cc4cc(-c5cnc([C@@H]6CCCN6C(=O)[C@@H](NC(=O)OC)C(C)C)[nH]5)ccc4n32)s1,0.003 nM,0.9 nM,0.002 nM,0.003 nM,0.06 nM,0.067 nM,8 mL/min/kg,6.4 h,0.7 µM·h,17 nM,3%,1.7 mL/min/kg,15 h,13.8 µM·h,172 nM,21%,20,300,1,1,Selectivity ratio [27]: 22
COC(=O)N[C@H](C(=O)N1CCC[C@H]1c1ncc(-c2cc(F)c3c(c2)OC(c2cccs2)n2c-3cc3cc(-c4cnc([C@@H]5CCCN5C(=O)[C@@H](NC(=O)OC)C(C)C)[nH]4)ccc32)[nH]1)C(C)C (mixture of isomers),0.03 nM,8 to 8.2 nM,0.016 nM,,3 to 3.4 nM,0.76 nM,,,,,,,,,,,100,267,,,
CCc1ccc([C@@H]2Oc3cc(-c4cnc([C@@H]5CCCN5C(=O)[C@@H](NC(=O)OC)C(C)C)[nH]4)ccc3-c3cc4cc(-c5cnc([C@@H]6CCCN6C(=O)[C@@H](NC(=O)OC)C(C)C)[nH]5)ccc4n32)s1,0.005 nM,0.25 nM,,,3.4 nM,,,,,,,,,,,,680,50,,,
CCCc1ncc(C2Oc3cc(-c4cnc([C@@H]5CCCN5C(=O)[C@@H](NC(=O)OC)C(C)C)[nH]4)cc(F)c3-c3cc4cc(-c5cnc([C@@H]6CCCN6C(=O)[C@@H](NC(=O)OC)C(C)C)[nH]5)ccc4n32)s1 (stereo partly specified),0.001 nM,0.14 nM,0.002 nM,0.01 nM,0.088 nM,0.02 nM,16 mL/min/kg,4.3 h,0.8 µM·h,4 nM,7%,1.8 mL/min/kg,11.5 h,11 µM·h,76.7 nM,23%,88,140,2,10,Selectivity ratio [27]: 20
COC(=O)N[C@H](C(=O)N1CCC[C@H]1c1ncc(-c2cc(F)c3c(c2)OC(c2cnc(C4CC4)s2)n2c-3cc3cc(-c4cnc([C@@H]5C[C@H]6C[C@H]6N5C(=O)[C@@H](NC(=O)OC)C(C)C)[nH]4)ccc32)[nH]1)C(C)C (stereo partly specified),0.006 nM,0.076 nM,0.011 nM,0.006 nM,0.021 nM,0.007 nM,12 mL/min/kg,3.9 h,,1.9 nM,4%,,,,,,,,,,AUC(0-t) at 24 h [30]: 0.52 µM·h
COC(=O)N[C@H](C(=O)N1CCC[C@H]1c1ncc(-c2ccc3c(c2)OC(c2ccc(Cl)s2)n2c-3cc3cc(-c4cnc([C@@H]5CCCN5C(=O)[C@@H](NC(=O)OC)C(C)C)[nH]4)ccc32)[nH]1)C(C)C (mixture of isomers),0.02 nM,1 nM,,,4 nM,,,,,,,,,,,,200,50,,,
COC(=O)N[C@H](C(=O)N1CCC[C@H]1c1ncc(-c2cc(F)c3c(c2)O[C@@H](c2ccc4c(c2)OCCC4)n2c-3cc3cc(-c4cnc([C@@H]5CCCN5C(=O)[C@@H](NC(=O)OC)C(C)C)[nH]4)ccc32)[nH]1)C(C)C,0.003 nM,0.3 nM,,,0.5 nM,,,,,,,,,,,,167,100,,,
COC(=O)N[C@H](C(=O)N1CCC[C@H]1c1ncc(-c2cc(F)c3c(c2)OC(c2ccc(C4CC4)s2)n2c-3cc3cc(-c4cnc([C@@H]5CCCN5C(=O)[C@@H](NC(=O)OC)C(C)C)[nH]4)ccc32)[nH]1)C(C)C (stereo partly specified),0.003 nM,0.16 nM,0.007 nM,0.009 nM,0.11 nM,0.02 nM,11 mL/min/kg,7 h,1.1 µM·h,16 nM,5%,1.5 mL/min/kg,10 h,10.6 µM·h,134 nM,11%,37,53 to 200,2,3,
COC(=O)N[C@H](C(=O)N1CCC[C@H]1c1ncc(-c2cc(F)c3c(c2)O[C@@H](c2cnc(C4CC4)s2)n2c-3cc3cc(-c4cnc([C@@H]5CCCN5C(=O)[C@@H](NC(=O)OC)C(C)C)[nH]4)ccc32)[nH]1)C(C)C [RUZASVIR],0.003 nM,0.036 nM,0.006 to 0.007 nM,0.007 to 0.011 nM,0.067 nM,0.016 nM,13 mL/min/kg,4.7 h,0.4 µM·h,3 nM,4%,1.6 mL/min/kg,4 h,12.9 µM·h,43 nM,22%,22,12,2,2,EC90 (Huh-7 [5]): 0.003 nM; EC90 [6]: 0.009 nM; EC90 [7]: 0.011 nM; EC90 [8]: 0.002 nM; EC90 (Huh-7 [9]): 0.001 nM; EC90 (Huh-7 [10]): 0.001 nM; EC90 (Huh-7 [11]): 0.007 nM; EC90 (Huh-7 [12]): 0.027 nM; Selectivity ratio [27]: 5
COC(=O)N[C@H](C(=O)N1CCC[C@H]1c1ncc(-c2ccc3c(c2)O[C@@H](c2ccc(C4CC4)cc2)n2c-3cc3cc(-c4cnc([C@@H]5CCCN5C(=O)[C@@H](NC(=O)OC)C(C)C)[nH]4)ccc32)[nH]1)C(C)C,0.004 nM,1 nM,,,8 nM,,,,,,,,,,,,1900,300,,,
